Measured values: PubChem BioAssay AID2060488 (Molecular Pharmacology Branch, DTP, NCI, 2025)

System: 966289-007-R4-J1-PDC complex spheroid viability
Experiment: Anticancer human tumor 966289-007-R4-J1-PDC patient-derived pancreatic adenocarcinoma cell line growth inhibition [GQUAD]
Details: for IC50: curve of first compound; for viability, T/C: stronger effect = lower value; active means viability on the fitted dose curve at most 10% of control; inactive means the rest
Summary of the method: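 Viability of tumor cells grown as complex spheroids with endothelial and stromal cells, exposed to drug combinations. Top concentration at or near clinical Cmax (else 10 microM), diluted in half-log increments.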

[1] = second compound 0.0316 µM, first compound 0.0316 µM
[2] = second compound 0.0316 µM, first compound 0.316 µM
[3] = second compound 0.1 µM, first compound 0.0316 µM
[4] = second compound 0.1 µM, first compound 0.316 µM
[5] = second compound 0.316 µM, first compound 0.0316 µM
[6] = second compound 0.316 µM, first compound 0.316 µM
[7] = second compound 1 µM, first compound 0.0316 µM
[8] = second compound 1 µM, first compound 0.316 µM
[9] = second compound 3.16 µM, first compound 0.0316 µM
[10] = second compound 3.16 µM, first compound 0.316 µM
[11] = second compound 10 µM, first compound 0.0316 µM
[12] = second compound 10 µM, first compound 0.316 µM
[13] = second compound 0.0316 µM, first compound 0.000999 µM
[14] = second compound 0.0316 µM, first compound 0.00316 µM
[15] = second compound 0.0316 µM, first compound 0.00999 µM
[16] = second compound 0.0316 µM, first compound 0.0999 µM
[17] = second compound 0.1 µM, first compound 0.000999 µM
[18] = second compound 0.1 µM, first compound 0.00316 µM
[19] = second compound 0.1 µM, first compound 0.00999 µM
[20] = second compound 0.1 µM, first compound 0.0999 µM
[21] = second compound 0.316 µM, first compound 0.000999 µM
[22] = second compound 0.316 µM, first compound 0.00316 µM
[23] = second compound 0.316 µM, first compound 0.00999 µM
[24] = second compound 0.316 µM, first compound 0.0999 µM
[25] = second compound 1 µM, first compound 0.000999 µM
[26] = second compound 1 µM, first compound 0.00316 µM
[27] = second compound 1 µM, first compound 0.00999 µM
[28] = second compound 1 µM, first compound 0.0999 µM
[29] = second compound 3.16 µM, first compound 0.000999 µM
[30] = second compound 3.16 µM, first compound 0.00316 µM
[31] = second compound 3.16 µM, first compound 0.00999 µM
[32] = second compound 3.16 µM, first compound 0.0999 µM
[33] = second compound 10 µM, first compound 0.000999 µM
[34] = second compound 10 µM, first compound 0.00316 µM
[35] = second compound 10 µM, first compound 0.00999 µM
[36] = second compound 10 µM, first compound 0.0999 µM
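Further: spheroids exposed to the agents for seven days before readout.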
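Wherever viability, T/C is given: percent viability relative to DMSO vehicle control wells taken as 100%.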

C=CC(=O)N1CCN(c2nc(=O)n(-c3c(C)ccnc3C(C)C)c3nc(-c4c(O)cccc4F)c(F)cc23)C(C)C1 (stereo unspecified) + CN(C)c1ccc(Nc2c3ccc(NC(=O)CCN4CCCC4)cc3nc3cc(NC(=O)CCN4CCCC4)ccc23)cc1
inactive: viability, T/C [1] 107% | viability, T/C (second compound 0.0316 µM, first compound 0.1 µM) 99.6% | viability, T/C [2] 106% | viability, T/C (second compound 0.0316 µM, first compound 1 µM) 100% | viability, T/C (second compound 0.0316 µM, first compound 3.16 µM) 106% | viability, T/C (second compound 0.0316 µM, first compound 10 µM) 110% | viability, T/C [3] 101% | viability, T/C (second compound 0.1 µM, first compound 0.1 µM) 105% | viability, T/C [4] 105% | viability, T/C (second compound 0.1 µM, first compound 1 µM) 104% | viability, T/C (second compound 0.1 µM, first compound 3.16 µM) 102% | viability, T/C (second compound 0.1 µM, first compound 10 µM) 113% | viability, T/C [5] 96% | viability, T/C (second compound 0.316 µM, first compound 0.1 µM) 104% | viability, T/C [6] 106% | viability, T/C (second compound 0.316 µM, first compound 1 µM) 102% | viability, T/C (second compound 0.316 µM, first compound 3.16 µM) 97.1% | viability, T/C (second compound 0.316 µM, first compound 10 µM) 111% | viability, T/C [7] 94.3% | viability, T/C (second compound 1 µM, first compound 0.1 µM) 99.8% | viability, T/C [8] 102% | viability, T/C (second compound 1 µM, first compound 1 µM) 94.8% | viability, T/C (second compound 1 µM, first compound 3.16 µM) 108% | viability, T/C (second compound 1 µM, first compound 10 µM) 108% | viability, T/C [9] 99.6% | viability, T/C (second compound 3.16 µM, first compound 0.1 µM) 101% | viability, T/C [10] 107% | viability, T/C (second compound 3.16 µM, first compound 1 µM) 105% | viability, T/C (second compound 3.16 µM, first compound 3.16 µM) 106% | viability, T/C (second compound 3.16 µM, first compound 10 µM) 111% | viability, T/C [11] 105% | viability, T/C (second compound 10 µM, first compound 0.1 µM) 101% | viability, T/C [12] 108% | viability, T/C (second compound 10 µM, first compound 1 µM) 105% | viability, T/C (second compound 10 µM, first compound 3.16 µM) 106% | viability, T/C (second compound 10 µM, first compound 10 µM) 21.7%
6780 nM: IC50 (second compound 10 µM)
> 10000 nM: IC50 (second compound 0.0316 µM) | IC50 (second compound 0.1 µM) | IC50 (second compound 0.316 µM) | IC50 (second compound 1 µM) | IC50 (second compound 3.16 µM)

CC[C@@]1(O)C(=O)OCc2c1cc1n(c2=O)Cc2cc3c(CN(C)C)c(O)ccc3nc2-1 + CN(C)c1ccc(Nc2c3ccc(NC(=O)CCN4CCCC4)cc3nc3cc(NC(=O)CCN4CCCC4)ccc23)cc1
active: viability, T/C [16] 0.84% | viability, T/C [2] 0.56% | viability, T/C [20] 0.82% | viability, T/C [4] 0.54% | viability, T/C [24] 0.87% | viability, T/C [6] 0.83% | viability, T/C [28] 0.86% | viability, T/C [8] 0.61% | viability, T/C [32] 1.25% | viability, T/C [10] 0.55% | viability, T/C [36] 0.73% | viability, T/C [12] 0.68%
48.5 nM: IC50 (second compound 0.316 µM)
24.8 nM: IC50 (second compound 10 µM)
50.3 nM: IC50 (second compound 0.1 µM)
53.3 nM: IC50 (second compound 1 µM)
50.7 nM: IC50 (second compound 3.16 µM)
inactive: viability, T/C [13] 100% | viability, T/C [14] 96.9% | viability, T/C [15] 92.9% | viability, T/C [1] 82.1% | viability, T/C [17] 102% | viability, T/C [18] 98% | viability, T/C [19] 103% | viability, T/C [3] 83.5% | viability, T/C [21] 101% | viability, T/C [22] 96.1% | viability, T/C [23] 107% | viability, T/C [5] 79% | viability, T/C [25] 92.1% | viability, T/C [26] 96.5% | viability, T/C [27] 102% | viability, T/C [7] 91% | viability, T/C [29] 96.1% | viability, T/C [30] 98.2% | viability, T/C [31] 110% | viability, T/C [9] 84.3% | viability, T/C [33] 104% | viability, T/C [34] 89.2% | viability, T/C [35] 110% | viability, T/C [11] 36.2%
49.8 nM: IC50 (second compound 0.0316 µM)

CCc1c2c(nc3ccc(O)cc13)-c1cc3c(c(=O)n1C2)COC(=O)[C@]3(O)CC + CN(C)c1ccc(Nc2c3ccc(NC(=O)CCN4CCCC4)cc3nc3cc(NC(=O)CCN4CCCC4)ccc23)cc1
inactive: viability, T/C [13] 21.2% | viability, T/C [17] 22.3% | viability, T/C [21] 18.6% | viability, T/C [25] 22.2% | viability, T/C [29] 17.7%
active: viability, T/C [14] 1.29% | viability, T/C [15] 0.59% | viability, T/C [1] 0.58% | viability, T/C [16] 0.44% | viability, T/C [2] 0.43% | viability, T/C [18] 1.11% | viability, T/C [19] 0.72% | viability, T/C [3] 1.03% | viability, T/C [20] 0.43% | viability, T/C [4] 0.56% | viability, T/C [22] 1.04% | viability, T/C [23] 1.15% | viability, T/C [5] 0.5% | viability, T/C [24] 0.36% | viability, T/C [6] 0.44% | viability, T/C [26] 1.12% | viability, T/C [27] 0.68% | viability, T/C [7] 0.53% | viability, T/C [28] 1.55% | viability, T/C [8] 0.4% | viability, T/C [30] 1.42% | viability, T/C [31] 0.73% | viability, T/C [9] 0.58% | viability, T/C [32] 0.38% | viability, T/C [10] 0.97% | viability, T/C [33] 9.4% | viability, T/C [34] 0.87% | viability, T/C [35] 0.74% | viability, T/C [11] 0.39% | viability, T/C [36] 0.62% | viability, T/C [12] 0.22%
< 0.999 nM: IC50 (second compound 0.0316 µM) | IC50 (second compound 0.1 µM) | IC50 (second compound 0.316 µM) | IC50 (second compound 1 µM) | IC50 (second compound 3.16 µM) | IC50 (second compound 10 µM)
